Test results taken from patent publication US7008627B1, “Use of complexes for the preparation of compositions for the treatment of sensitive skin, preparation process and hypoallergenic compositions” (Johnson & Johnson Consumer France, priority 1996, dated 2006).
Where “and” joins values, the source holds several entries; their conditions need not be identical. Equal values may be shown once. Each block holds one substance with its values, some of them ahead of it.

Legend:
[1] = test system: nitro derivatives (NO2^−); assay: Production of nitro derivatives by keratinocytes after stimulation by IL-4 and IgE-containing immune complexes; format: cell-based, human
Procedure: (§1) To evaluate the allergic inflammation, the cells are activated by IL-4, which induces the CD23 receptor, and then by IgE-containing immune complexes. In all cases, the cellular supernatants are analysed after the activation.
(§2) The following products were used during this study: Escherichia coli LPS (Sigma), used at 1 μg/ml. IFN-γ and IL-4 are sourced from Immugenex (Los Angeles Calif.) and are used respectively at 1000 U/ml and 10 ng/ml, the monoclonal IgEs are sourced from Stallergene (Fresnes, France) and the anti-IgEs are from Nordic (Tilburg, Holland).
(§3) The confluent keratinocyte cultures are trypsinized and transferred into 24-well plates in fresh medium at the cellular density of 10^5 cells/ml/well. If appropriate, in the case of stimulation by IL-4, the presence of the IgE receptor (CD23) at the surface of the cells is verified by immunolabeling.
(§4) The cells are activated by the combination of IFN-γ and LPS for 3 to 4 days and the supernatants of these cultures are then recovered in order to quantitatively determine the nitrogeneous derivatives and TNF-α. […] Quantitative determination of the nitrogenous derivatives is carried out using the Griess approach and the TNF level is measured by using quantitative determination kits from Medgënix (Fleurus, Belgium). […]

[2] = test system: TNF; assay: Production of TNF by keratinocytes after stimulation by IFN-γ + LPS; format: cell-based, human; conditions: for Production of TNF: keratinocytes stimulated by IFN-γ + LPS, Expt-1 to Expt-4; for effect on the production of TNF: keratinocytes stimulated by IFN-γ and LPS
Excerpt: (§5) The activities of the test products are therefore investigated with respect to human macrophage and keratinocyte cultures which are or are not stimulated by intereferon-γ+lipopolysaccharide (non-specific inflammation or by IL-4 (allergic inflammation). This type of stimulation places the cells in the context of a pro-oxidizing response (generation of NO or superoxide anion free radicals, which can be evaluated by measuring the production of nitrogeneous derivatives) and an immuno-inflammatory response (production of cytokines such as TNF-α).
as §2, §3
(§6) The cells are activated by the combination of IFN-γ and LPS for 3 to 4 days and the supernatants of these cultures are then recovered in order to quantitatively determine the nitrogeneous derivatives and TNF-α. Likewise, during stimulation by IgE, the cells are first activated by IL-4, so as to induce the CD23, and are then subsequently cultured and stimulated by the IgE-containing immune complexes for 3 to 5 days before recovering the different supernatants. In all the cases, cellular viability is achieved on conclusion of these cultures. In the specific case of macrophages, a long-term (7 to 12 days) viability study was carried out, so as to determine the protective effects of these products. Quantitative determination of the nitrogenous derivatives is carried out using the Griess approach and the TNF level is measured by using quantitative determination kits from Medgënix (Fleurus, Belgium).
(§7) In this study, the product H37 (10 mg/ml) is added 30 min before stimulation by IFN-γ+LPS.
(§8) In this study, the products (10 mg/ml or 1/100 v/v) are added 30 min before stimulation by IFN-γ+LPS. In none of the cases have these products shown a cytotoxic activity.

[3] = test system: TNF; assay: Production of TNF by macrophages after stimulation by IL-4 and IgE-containing immune complexes; format: cell-based, human
Procedure: as §1, §2
The macrophage cells are obtained from the peripheral blood of normal donors (non-allergic). The mononuclear cells are isolated on a ficoll gradient and the ring of lymphoid cells is recovered and washed three times and the cells are then cultured so as to cause the macrophage cells to adhere. These cells are recovered after adhering for 1 hour and are cultured (10^6 cells/ml/well). […]
as §4

[4] = test system: keratinocytes; assay: Dose effect of K18 on the inflammatory functions of the keratinocytes (FIG. 1); format: cell-based, human
Procedure: FIG. 1: Dose effect of carboxymethyl-β-glucan with respect to the inflammatory functions of the keratinocytes.
Consequently, the effects of the product K18 were evaluated as a function of the dose. The results are illustrated in FIG. 1.

[5] = test system: nitro derivatives (NO2^−); assay: Production of nitro derivatives by macrophages after stimulation by IL-4 and IgE-containing immune complexes; format: cell-based, human; conditions: for Production of nitro derivatives (NO2^−): macrophages stimulated by IgE-containing immune complexes (IL-4), Expt-1 to Expt-4
Procedure: as §1, §2
(§9) The macrophage cells are obtained from the peripheral blood of normal donors (non-allergic). The mononuclear cells are isolated on a ficoll gradient and the ring of lymphoid cells is recovered and washed three times and the cells are then cultured so as to cause the macrophage cells to adhere. These cells are recovered after adhering for 1 hour and are cultured (10^6 cells/ml/well). If appropriate, in the case of stimulation by IL-4, the presence of the IgE receptor (CD23) at the surface of the cells is verified by immunolabelling.
as §6
On completion of this culturing period, 30 to 80% of the keratinocytes and of the macrophages express CD23. The individual variations are in no case the reflection of a different allergic situation between these individuals.
After the CD23 has been taken up by IgE-containing immune complexes, the production of a large number of mediators and cytokines (in particular TNF) and of products resulting from the oxidative metabolism, such as nitrogenous derivatives, is induced. This stimulation redefines in vitro an allergic-type inflammatory reaction.
(§10) On completion of this culturing period, 30 to 80% of the keratinocytes and of the macrophages express CD23. The individual variations are in no case the reflection of a different allergic situation between these individuals. […]

[6] = test system: keratinocytes and macrophages; assay: Overall anti-inflammatory activity (non-specific and allergic) on stimulated keratinocytes and macrophages; format: cell-based, human; conditions: conclusion from the IFN-γ + LPS (non-specific) and IL-4/IgE (allergic) models
Excerpt: as §5, §1
The cells are activated by the combination of IFN-γ and LPS for 3 to 4 days and the supernatants of these cultures are then recovered in order to quantitatively determine the nitrogeneous derivatives and TNF-α. […] Quantitative determination of the nitrogenous derivatives is carried out using the Griess approach and the TNF level is measured by using quantitative determination kits from Medgënix (Fleurus, Belgium).

[7] = test system: TNF; assay: Production of TNF by keratinocytes after stimulation by IL-4 and IgE-containing immune complexes; format: cell-based, human
Procedure: as §1, §2, §3, §6, §10

[8] = test system: nitro derivatives (NO2^−); assay: Production of nitro derivatives by keratinocytes after stimulation by IFN-γ + LPS; format: cell-based, human; conditions: for Production of nitro derivatives (NO2^−), value between brackets / Production of nitro derivatives (NO2^−): Table 5A, + 10 mg/ml of the product; for Production of nitro derivatives (NO2^−), value between brackets: keratinocytes not stimulated by IFN-γ + LPS; for Production of nitro derivatives (NO2^−): keratinocytes stimulated by IFN-γ + LPS, Expt-1 to Expt-4; for effect on the production of nitro derivatives / NO: keratinocytes stimulated by IFN-γ and LPS
Excerpt: as §5, §2, §3, §6, §7, §8

[9] = test system: nitro derivatives (NO2^−); assay: Production of nitro derivatives by macrophages after stimulation by IFN-γ + LPS; format: cell-based, human; conditions: for Production of nitro derivatives (NO2^−), value between brackets: Table 5A, macrophages not stimulated by IFN-γ + LPS, + 10 mg/ml of the product; for effect on the production of nitro derivatives: macrophages stimulated by IFN-γ and LPS
Excerpt: as §5, §2, §9, §6, §7, §8

[10] = test system: TNF; assay: Production of TNF by macrophages after stimulation by IFN-γ + LPS; format: cell-based, human; conditions: for effect on the production of TNF: macrophages stimulated by IFN-γ and LPS
Excerpt: as §5, §2, §9
as §6, with “In all the cases, cellular viability is achieved on conclusion of these cultures. In the specific case of macrophages, a long-term (7 to 12 days) viability study was carried out, so as to determine the protective effects of these products.” left out, “Belgium). […]” for “Belgium).”

[11] = test system: catalase; assay: Summary table: anti-free radicals activity, catalase; conditions: result in words
Excerpt: (§11) Enzymes which are active in endogenous defence systems against free radicals are, for example, SOD (or superoxide -disumtase), catalase or glutathione peroxidase; attempts will be made to stimulate the production of these enzymes or they can be introduced exogeneously.

[12] = test system: IL-1α; assay: Summary table: anti-inflammatory activity, IL-1α; format: cell-based; conditions: result in words
Excerpt: (§12) It is possible in particular to operate on keratinocytes and macrophage cells because these are cells which are essential for the development of a local inflammatory reaction. Moreover, macrophages are particularly advantageous cells because, due to the fact that these are resident cells in the skin, they regulate not only local inflammatory reactions but they also regulate the immune responses by their ability to present the antigen and to produce a great number of cytokines which regulate local immunity. These macrophages are also involved in communications with the circulatory system which can, if appropriate, mobilize different cell types (monocytes, neutrophils, eosinophils and T lymphocytes), thus increasing the non-specific and specific defensive power of the tissue under consideration.
as §5

[13] = test system: LTB4; assay: Summary table: anti-inflammatory activity, LTB4; format: cell-based; conditions: result in words
Excerpt: as §12, §5

[14] = test system: TNF-α; assay: Summary table: anti-inflammatory activity, TNF-α; format: cell-based, human; conditions: result in words
Excerpt: as §12, §5

[15] = test system: glutathione peroxidase; assay: Summary table: anti-free radicals activity, glutathione peroxidase; conditions: result in words
Excerpt: as §11

[16] = test system: NO; assay: Summary table: anti-free radicals activity, NO; format: cell-based, human; conditions: result in words
Excerpt: as §12, §5

[17] = test system: PGE2; assay: Summary table: anti-inflammatory activity, PGE2; format: cell-based; conditions: result in words
Excerpt: as §12, §5

[18] = test system: peroxidation of the lipids; assay: Summary table: anti-free radicals activity, peroxidation of the lipids; conditions: result in words
[19] = test system: mixed lympho-epidermal cultures (MLEC); assay: Summary table: anti-allergic activity, mixed lympho-epidermal cultures (MLEC), lymphocyte proliferation; format: cell-based; conditions: result in words
Excerpt: The activity of the components is also confirmed on mixed lympho-epidermal cultures (MLEC).
In the skin, Langherans cells indeed play an essential role in the […] of the antigen and keratinocytes generate factors which are involved in the immune response, thus constituting a cutaneous immune system. MLECs make it possible to determine the immuno-modulatory properties of substance by measuring the lymphocyte proliferation induced by the antigen-presenting allogenic epidermal cells, with or without treatment by the substance.

[20] = keratinocytes stimulated by IL-4
[21] = Table 5B, + 10 mg/ml of the product
[22] = Table 6A, + 10 mg/ml of the product

Substance: Carboxymethyl-β-glucan [K18]
- Production of nitro derivatives (NO2^−), value between brackets ([1]; Table 6A, keratinocytes not stimulated by IgE-containing immune complexes, + 10 mg/ml of the product): 2 µM and 4 µM
- effect on the production of nitro derivatives [1, 20]: inhibitory activity
- Production of TNF [2, 21]: 130 pg/mL and 95 pg/mL and 85 pg/mL and 82 pg/mL
- effect on the production of TNF [2]: efficiently inhibit
- effect on the production of TNF ([3]; macrophages stimulated by IL-4): inhibitory activity
- generation of TNF as a function of the dose [4]: inhibits, in a dose-dependent way
- generation of nitro derivatives as a function of the dose [4]: inhibits, in a dose-dependent way
- Production of nitro derivatives (NO2^−), value between brackets ([5]; Table 6A, macrophages not stimulated by IgE-containing immune complexes, + 10 mg/ml of the product): 2 µM and 4 µM
- Production of nitro derivatives (NO2^−) [5, 22]: 7 µM and 6 µM and 10 µM
- effect on the production of nitro derivatives ([5]; macrophages stimulated by IL-4): inhibitory activity
- anti-inflammatory activity [6]: non-specific and allergic-type anti-inflammatory activity
- effect on the production of TNF [7, 20]: inhibitory activity
- Production of nitro derivatives (NO2^−), value between brackets [8]: 1 µM
- Production of nitro derivatives (NO2^−) [8]: 13 µM and 14 µM and 11 µM and 7 µM
- effect on the production of nitro derivatives / NO [8]: high ability to inhibit
- Production of nitro derivatives (NO2^−), value between brackets [9]: 1 µM and 2 µM
- effect on the production of nitro derivatives [9]: high ability to inhibit
- effect on the production of TNF [10]: efficiently inhibit

Substance: poly-β(1→3)-glucopyranose [K17]
- Production of TNF, value between brackets ([2]; Table 5B, keratinocytes not stimulated by IFN-γ + LPS, + 10 mg/ml of the product, ND = non-detectable): 95 pg/mL
- Production of TNF [2, 21]: 125 pg/mL and 98 pg/mL and 100 pg/mL and 70 pg/mL
- effect on the production of TNF [2]: efficiently inhibit
- Production of TNF, value between brackets ([3]; Table 6B, macrophages not stimulated by IgE-containing immune complexes, + product): 45 pg/mL and 41 pg/mL and 32 pg/mL
- Production of nitro derivatives (NO2^−) [5, 22]: 16 µM and 17 µM and 19 µM and 30 µM
- anti-inflammatory activity [6]: only has a non-specific anti-inflammatory activity
- Production of TNF, value between brackets ([7]; Table 6B, keratinocytes not stimulated by IgE-containing immune complexes, + product): 35 pg/mL and 31 pg/mL and 32 pg/mL and 40 pg/mL
- Production of TNF ([7]; Table 6B, keratinocytes stimulated by IL-4 / IgE-containing immune complexes, + product, Expt-1 to Expt-4): 185 pg/mL and 111 pg/mL and 120 pg/mL and 132 pg/mL
- Production of nitro derivatives (NO2^−), value between brackets [8]: 2 µM and 1 µM
- Production of nitro derivatives (NO2^−) [8]: 15 µM and 16 µM and 8 µM
- effect on the production of nitro derivatives / NO [8]: high ability to inhibit
- Production of nitro derivatives (NO2^−), value between brackets [9]: 2 μM and 1 μM and 1.5 μM and 2 (2) μM
- effect on the production of nitro derivatives [9]: high ability to inhibit
- Production of TNF ([10]; Table 5B, macrophages stimulated by IFN-γ + LPS, + 10 mg/ml of the product, Expt-1 to Expt-4): 605 pg/mL and 902 pg/mL and 970 pg/mL and 695 pg/mL
- effect on the production of TNF [10]: efficiently inhibit

- Anti-free radicals: catalase [11]: stimulation
- Anti-free radicals: glutathione peroxidase [15]: stimulation
Substance: β-Glucan
- Anti-inflammatory: IL-1α [12]: inhibition
- Anti-inflammatory: LTB4 [13]: no effect
- Anti-inflammatory: TNF-α [14]: inhibition
- Anti-free radicals: NO [16]: inhibition
- Anti-inflammatory: PGE2 [17]: inhibition
- Anti-free radicals: peroxidation of the lipids [18]: no effect
- Anti-allergic: MLEC [19]: no effect
